# Measurements reported in patent US20250041312A1, “METHODS OF ADMINISTERING A MODULATOR OF HEMOGLOBIN” (Global Blood Therapeutics, Inc., priority 2021, published 2025).
# Like-named read-outs stand apart in the source and are kept apart here.
# How the values were obtained:
# [1] = MAD study in healthy volunteers: whole blood and plasma PK; type: in vivo, human; details: for Cmax / Tmax / AUC(0-t) / concentration at 14 day: human; for Tmax: median; for AUC(0-t): read-out: AUC0-24; for concentration at 14 day: read-out: Cmin
# [2] = tested on: red blood cells; assay: Ektacytometry (Lorrca Oxygenscan) red blood cell deformability, SCD patients; type: in vivo, human
# Source text: An ektacytometer laser optical rotational red cell analyzer (Lorrca; RR Mechatronics, NL) was used to analyze deformability of red blood cells using a defined value of shear stress with an increasing osmotic gradient (Osmoscan) as well as a newer technology to subject these cells to gradual deoxygenation (Oxygenscan).
# [3] = Single 100 mg dose PK in SCD subjects; type: in vivo, human; details: for AUC(0-t) / Cmax / half-life / Tmax: human; for AUC(0-t) / Cmax: 100 mg; for Tmax: median
# Procedure: The PK profile of a single 100 mg dose in whole blood and plasma was evaluated using standard noncompartmental analysis. The preliminary PK parameter estimates of Compound I in whole blood from SCD subjects differed from healthy subjects in terms of elimination t½, AUC, Tmax, and blood to plasma ratio. In brief, the elimination t½ and Tmax were nearly 3× faster or occurred earlier, respectively, in SCD than in healthy subjects, and the blood to plasma ratio was about 30% of the values in healthy subjects (most likely due to the fewer RBCs compared to healthy subjects). For the plasma compartment, the differences between the 2 populations were most notable in terms of elimination t1/2, which again was about 2.5 times faster in SCD.
# [4] = molecular target: T1, hemoglobin (Homo sapiens, UniProt P68871+P69905); assay: Percent Hb occupancy after single doses, healthy volunteers; type: in vivo; details: for % Hb occupancy based on Cmax: mean
# T1 construct: divided by the molar concentration of hemoglobin in RBCs; endogenous in cells; host or cells: red blood cells of healthy volunteers (in vivo)
# Procedure: In some embodiments, the therapeutically effective amount is determined by measuring the percent of hemoglobin occupied by the compound, i.e., the percent Hb occupancy. The percent Hb occupancy is a measure of target engagement defined as the percentage of hemoglobin bound by a compound (e.g., Compound I) calculated as the molar concentration of the compound (e.g., Compound I) in RBCs divided by the molar concentration of hemoglobin in RBCs (the mean corpuscular hemoglobin concentration calculated from the hematology panel). The values for concentration of a compound (e.g., Compound I) in RBCs is calculated from the concentrations in whole blood and plasma, and the hematocrit.
# Percent hemoglobin occupancy was calculated as follows, wherein MCHC refers to mean corpuscular hemoglobin concentration, and Hct refers to hematocrit: […]
# [5] = HV MAD Day 14, 15 mg QD maintenance, plasma
# [6] = HV MAD Day 14, 15 mg QD maintenance, whole blood
# [7] = HV MAD Day 14, 25 mg QD maintenance, plasma
# [8] = HV MAD Day 14, 25 mg QD maintenance, whole blood
# [9] = HV MAD Day 14, 50 mg QD maintenance, plasma
# [10] = HV MAD Day 14, 75 mg QD maintenance, plasma
# [11] = HV MAD Day 14, 75 mg QD maintenance, whole blood
# [12] = plasma, SCD subjects n=6, single 100 mg, geometric mean
# [13] = whole blood, SCD single 100 mg, mean
# [14] = whole blood, SCD subjects n=6, single 100 mg, blood, geometric mean
# T1 sequence (P69905 2-142 limits assumed): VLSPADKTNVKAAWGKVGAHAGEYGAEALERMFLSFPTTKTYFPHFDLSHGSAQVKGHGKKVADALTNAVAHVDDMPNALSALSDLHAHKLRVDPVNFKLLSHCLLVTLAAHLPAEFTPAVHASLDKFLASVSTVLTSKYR
# T1 sequence (P68871 2-147 limits assumed): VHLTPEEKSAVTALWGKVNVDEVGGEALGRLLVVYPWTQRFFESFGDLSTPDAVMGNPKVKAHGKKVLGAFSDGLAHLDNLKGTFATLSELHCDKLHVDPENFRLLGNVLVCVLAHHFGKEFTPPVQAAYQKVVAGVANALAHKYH
smiles,measurement,setting,value
"O=Cc1c(O)cccc1OC[C@@H]1COCCN1C(=O)c1cccnc1CCO [Compound I, (S)-2-hydroxy-6-((4-(2-(2-hydroxyethyl)nicotinoyl)morpholin-3-yl)methoxy)benzaldehyde]",B:P ratio (mean AUC0-24 blood:mean AUC0-24 plasma),"[1]; HV MAD Day 14, 15 mg QD maintenance",182
same,B:P ratio (mean AUC0-24 blood:mean AUC0-24 plasma),"[1]; HV MAD Day 14, 25 mg QD maintenance",194
same,B:P ratio (mean AUC0-24 blood:mean AUC0-24 plasma),"[1]; HV MAD Day 14, 50 mg QD maintenance",149
same,PK among cohorts with multiple ascending doses,"[1]; HV, loading 300 mg x 3 days, maintenance 15, 25, 50 or 75 mg x 14 days (FIG. 2)","linear, dose-proportional PK"
same,Cmax,"[1]; HV MAD Day 14, 15 mg QD maintenance (loading 200 mg x 3 days), whole blood",130000 ng/mL
same,Cmax,[1]; [5],830 ng/mL
same,Tmax,[1]; [5],1 h
same,AUC(0-t),[1]; [5],15.6 µg·h/mL
same,concentration at 14 day,[1]; [5],680 ng/mL
same,Tmax,[1]; [6],6 h
same,concentration at 14 day,[1]; [6],121000 ng/mL
same,Cmax,"[1]; HV MAD Day 14, 25 mg QD maintenance (loading 200 mg x 3 days), whole blood",141000 ng/mL
same,Cmax,[1]; [7],900 ng/mL
same,Tmax,[1]; [7],1.5 h
same,AUC(0-t),[1]; [7],15.9 µg·h/mL
same,concentration at 14 day,[1]; [7],660 ng/mL
same,Tmax,[1]; [8],2 h
same,AUC(0-t),[1]; [8],3090 µg·h/mL
same,Cmax,"[1]; HV MAD Day 14, 50 mg QD maintenance (loading 500/400/400 mg), whole blood",236000 ng/mL
same,Cmax,[1]; [9],1990 ng/mL
same,Tmax,[1]; [9],1 h
same,AUC(0-t),[1]; [9],34.5 µg·h/mL
same,concentration at 14 day,[1]; [9],1450 ng/mL
same,concentration at 14 day,"[1]; HV MAD Day 14, 50 mg QD maintenance, whole blood",210000 ng/mL
same,Cmax,[1]; [10],2740 ng/mL
same,Tmax,[1]; [10],1 h
same,AUC(0-t),[1]; [10],48.6 µg·h/mL
same,concentration at 14 day,[1]; [10],2220 ng/mL
same,Tmax,[1]; [11],3 h
same,AUC(0-t),[1]; [11],6760 µg·h/mL
same,red blood cell health (Oxygenscan),"[2]; MAD-3 cohort SCD patients, 6 weeks (FIG. 13)",Improvement in red blood cell health
same,red blood cell health by Oxygenscan testing,"[2]; SCD patients, MAD-1 and MAD-2 (FIG. 9)",Improvements in red blood cell health were seen in all patients
same,B:P ratio (mean AUC0-t blood:mean AUC0-t plasma),[3]; SCD single 100 mg,69.3
same,B:P ratio AUC0-inf,"[3]; SCD subjects n=6, single 100 mg",69.3
same,t½,"[3]; SCD subjects n=6, single 100 mg, blood, geometric mean",235 h
same,AUC(0-t),[3]; [12],67.2 µg·h/mL
same,Cmax,[3]; [12],1010 ng/mL
same,AUC(0-t),[3]; [13],4690 µg·h/mL
same,Cmax,[3]; [13],16700 ng/mL
same,AUC(0-t),[3]; [14],4540 µg·h/mL
same,Cmax,[3]; [14],16200 ng/mL
same,half-life,"[3]; SCD single 100 mg, whole blood, mean, read-out: t1/2 (converted)",235 h
same,Tmax,"[3]; SCD single 100 mg, whole blood",8 h
same,half-life,"[3]; SCD subjects n=6, single 100 mg, plasma, geometric mean, read-out: t½ (converted)",252 h
same,Tmax,"[3]; SCD subjects n=6, single 100 mg, plasma",1.5 h
same,blood to plasma ratio in SCD as share of the values in healthy subjects,[3]; single 100 mg,about 30%
same,"elimination t1/2 in plasma, times faster in SCD","[3]; single 100 mg, plasma",about 2.5 times
same,"Tmax in whole blood, times earlier in SCD than in healthy subjects","[3]; single 100 mg, whole blood",~3 ×
same,"elimination t½ in whole blood, times faster in SCD than in healthy subjects","[3]; single 100 mg, whole blood",~3 ×
same,% Hb occupancy based on Cmax,[4]; HV single 50 mg,0.88%
same,% Hb occupancy based on Cmax,[4]; HV single 100 mg,1.9%
same,% Hb occupancy based on Cmax,[4]; HV single 200 mg,3.8%
same,% Hb occupancy based on Cmax,[4]; HV single 400 mg,9.5%
same,% Hb occupancy based on Cmax,[4]; HV single 800 mg,16.8%
same,% Hb occupancy based on Cmax,[4]; HV single 1400 mg,25%
same,% Hb occupancy based on Cmax,[4]; HV single 2200 mg,43.9%
same,difference in Hb occupancy between fasting and fed states,"[4]; HV, 200 mg single dose",no observable difference
same,"percent Hb occupancy, dependence on dose","[4]; HV, single doses (FIG. 1)",dose-dependent increase
same,Hb occupancies compared with voxelotor,"[4]; HV, single doses over a similar range",exceed those reported in healthy volunteers receiving single doses of voxelotor
